The record followed here is ChEMBL document CHEMBL5579856, “Stereospecific Synthesis and Biological Evaluation of KRN7000 Analogues with Thio-modifications at the Acyl Moiety” (2024).

Assay type in all cases: functional
Holding throughout (conditions): dose 200 µg/kg

Assay [1] relates to Mus musculus. Briefly: Induction of IFN-gamma secretion in male C57BL/6 mouse assessed as […] in serum at 200 ug/kg, iv measured after 16 hrs by ELISA (reference value: BLD). A general note: ELISA stands for enzyme-linked immunosorbent assay.
For assay [2], the system named is Mus musculus. Briefly: Induction of IL-4 secretion in male C57BL/6 mouse assessed as IL-4 level in serum at 200 ug/kg, iv measured after 4 hrs by ELISA (reference value: BLD).
The subject of assay [3] is Mus musculus. Briefly: Induction of cytokine secretion in male C57BL/6 mouse assessed as ratio of IFN-gamma to IL-4 level in serum at 200 ug/kg, iv by ELISA.

For the compound `CCCCCCCCCCCCCC[C@@H](O)[C@@H](O)[C@H](CO[C@H]1O[C@H](CO)[C@H](O)[C@H](O)[C@H]1O)NC(=O)CCCCCCCCCCc1ccc(F)cc1`, the Activity is 2470.48 pg/mL with Mus musculus [1] and 425.65 pg/mL with Mus musculus [2]. Moreover, in the assay with Mus musculus [3], the Ratio is 2.03.

Regarding `CCCCCCCCCCCCCCCCCCCCCCCCCC(=S)N[C@@H](CO[C@H]1O[C@H](CO)[C@H](O)[C@H](O)[C@H]1O)[C@H](O)[C@H](O)CCCCCCCCCCCCCC`, the values for the Activity in the assay on Mus musculus [1] and in the assay with Mus musculus [2] were 3291.25 pg/mL and 951.79 pg/mL, respectively. The Ratio in the assay on Mus musculus [3] came to 1.21.

For the compound `CCCCCCCCCCCCCC[C@@H](O)[C@@H](O)[C@H](CO[C@H]1O[C@H](CO)[C@H](O)[C@H](O)[C@H]1O)NC(=S)CCCCCCCCCCc1ccc(F)cc1`, the Activity with Mus musculus [1] turned out to be 1610.18 pg/mL; with Mus musculus [2], 276.98 pg/mL. Moreover, the Ratio in the assay on Mus musculus [3] is reported as 2.03.

Consider `CCCCCCCCCCCCCC[C@@H](O)[C@@H](O)[C@H](CO[C@H]1O[C@H](CO)[C@H](O)[C@H](O)[C@H]1O)NC(=O)CCCCCCCCCCc1ccc(Sc2ccc(F)cc2)cc1`, for which the Activity in the assay on Mus musculus [1] turned out to be 2100.52 pg/mL; with Mus musculus [2], 324.56 pg/mL. Also, in the assay on Mus musculus [3], the Ratio is 2.26.

With `CCCCCCCCCCCCCC[C@@H](O)[C@@H](O)[C@H](CO[C@H]1O[C@H](CO)[C@H](O)[C@H](O)[C@H]1O)NC(=S)CCCCCCCCCCc1ccc(Oc2ccc(F)cc2)cc1`, the Activity worked out at 571.16 pg/mL in the assay with Mus musculus [1] and 125.69 pg/mL in the assay with Mus musculus [2]. Moreover, the Ratio in the assay with Mus musculus [3] came out at 1.59.

`CCCCCCCCCCCCCC[C@@H](O)[C@@H](O)[C@H](CO[C@H]1O[C@H](CO)[C@H](O)[C@H](O)[C@H]1O)NC(=O)CCCCCCCCCCc1ccc(Oc2ccc(F)cc2)cc1`: the Activity in the assay with Mus musculus [1] is 655.43 pg/mL; with Mus musculus [2], 205.34 pg/mL. The Ratio in the assay on Mus musculus [3] worked out at 1.12.

Regarding `CCCCCCCCCCCCCC[C@@H](O)[C@@H](O)[C@H](CO[C@H]1O[C@H](CO)[C@H](O)[C@H](O)[C@H]1O)NC(=S)CCCCCCCCCCc1ccc(Sc2ccc(F)cc2)cc1`, the results for the Activity in the assay on Mus musculus [1] and in the assay on Mus musculus [2] were 1046.54 pg/mL and 396.07 pg/mL, respectively. Moreover, in the assay with Mus musculus [3], the Ratio is on record as 0.99.

Regarding `CCCCCCCCCCCCCCCCCCCCCCCCCC(=O)N[C@@H](CO[C@H]1O[C@H](CO)[C@H](O)[C@H](O)[C@H]1O)[C@H](O)[C@H](O)CCCCCCCCCCCCCC` [RGI-7000], the Activity was 3083.43 pg/mL with Mus musculus [1] and 1077.7 pg/mL in the assay on Mus musculus [2].
